In US5371186A, “Synthetic peptides for detoxification of bacterial endotoxins and for the prevention and treatment of septic shock” (priority 1992, dated 1994):

Columns and labels:
[1] = stoichiometry of the complexes with LPS by amino acid analysis; type: binding; conditions: 10 μg B. Pertussis LPS (2.64 nmoles Lipid A) + 10 μg peptide
Experimental: Quantitation of the amount of precipitated peptides present in the complexes with PLS of B. pertussis has been done by amino acid analysis after acid hydrolysis (by 6 M HCl) of the complexes recovered by centrifugation at 3,000 rpm×15 minutes. In Table III, the stoichiometry of some complexes is reported as calculated by the ratio (on molar basis) between the amount of each peptide and the amount of Lipid A present in the structure of LPS used in the experiments:
*Complexes formed between 10 μg of B. Pertussis LPS (equivalent to 4.5
μg of Lipid A of 2.64 nmoles) and 10 μg of peptide (twice the amoun
corresponding to the saturation point found for Polymyxin "B" in the
**Values represent the average of two separate experiments of amino acid
analysis after acid hydrolysis of the recovered complexes.

[2] = survival of Balb/c mice after endotoxin challenge; type: in vivo, mice (Strain Balb/c); conditions: for % survival / Mice surviving: peptides 1 mg/mouse, Polymyxin B 0.1 mg/mouse i.v., 1 mg endotoxin i.p.; for Mice surviving: 20 mice per group
Experimental: Groups of 20 mice Balb/c have been treated intravenously with the peptides of the invention at the dose of 1 mg/mouse or with 0.1 mg/mouse of Polymyxin B (the highest dose of this drug tolerated in the mouse, when injected alone). Thirty minutes later, mice were challenged by intraperitoneal injection of 1 mg endotoxin from E.C strain 055-B5. Surviving mice were recorded every 24 hours during a seven days-period of observation. Negative controls received an intravenous injection of saline.
(§1) There were 20 mice per group. Mice surviving at each of the seven 24 hours observation periods are listed. The % survival appears in parenthesis. P expresses the level of statistical significance calculated by "t-Test" for each molecule compared to the treatment with saline, considering the total survival rate in each group.

[3] = highest dose tolerated in the mouse when injected alone; type: in vivo; conditions: intravenously
[4] = tested on: spleen cells from unimmunized healthy SJL/J mice; experiment: LPS-induced polyclonal B-cell activation, 3H-thymidine incorporation; type: cell-based; conditions: LPS 50 μg/ml, LPS alone 22,737, non stimulated 2,449 cpm
Experimental: Cells were cultured in RPMI medium containing 1.0% normal mouse serum at 37° C. for 3 days. Cultures were pulsed with 1.0 μi/well of 3H-thymidine for 16 hours and harvested for counting on an LS betaplate counter. The results were as follows:
cpm measured with non stimulated cultures = 2,449.

trypsin in human serum = experiment: stability towards proteolysis by trypsin in human serum; type: in vitro ADME
Experimental: The effects of trypsin present in human serum on Polymyxin "B" and the peptides of invention was determined by combining 10 μl of human serum with 20 μg of the given peptide in 10 μl volume and holding the mixture at a temperature of 37° C. for different intervals of time. At various times, an aliquot of the mixture was processed by HPLC analysis in order to detect the residual amount of the investigated peptide. In Table VI the half-lives time of each peptide investigated are shown as compared to the half-life time of Polymyxin "B".

[5] = prevention of endotoxin-induced death in CD1 mice sensitized with Actinomycin D; type: in vivo, mice (Strain CD1); conditions: 0.1 mg/mouse i.v., 1 μg endotoxin i.p.; for Mice surviving: 20 mice per group
Experimental: Prevention of endotoxin-induced death in mice, has been achieved by intravenous injection of the peptides of the invention. For this experiment, a strain of mice highly sensitive to the lethal activity of bacterial endotoxin has been used. Mice sensitized with Actinomycin D (Strain CD1) show a high sensitivity to extremely low doses of endotoxin. A dose as low as 1 μg of endotoxin per mouse (about 40 μg/kg of body weight) is able to completely kill a population of mice within 24-48 hours.
Groups of 20 mice CD1 have been treated intravenously with the peptides of the invention, with a single dose of 0.1 mg peptide, solubilized in sterile saline, per mouse. Thirty minutes later, mice were challenged by intraperitoneal injection of 1 μg of endotoxin purified from E. Coli strain 055-B5. Surviving mice were recorded every 24 hours during a seven days-period of observation. […] Negative controls received an intravenous injection of saline.
as §1

[6] = direct competition with Polymyxin "B" (Affinity constant, Selectivity); type: binding, B. pertussis
Description: To further characterize the binding activity of the synthetic peptides for Lipid A of endotoxin, experiments of direct competition with Polymyxin "B" have been set-up in order to evaluate the Affinity constant value of Polymyxin "B" for the toxic moiety of endotoxin and ultimately to calculate the Selectivity of the synthetic peptide analogs (ratio on molar basis, between the affinity constant value of a given peptide and that of Polymyxin "B" for Lipid A).

Vibrio cholerae = experiment: antibiotic activity, zone of inhibition on BHI plates; type: cell-based, V. choleras; conditions: 18 hours
Experimental: The following experiments compared the antibiotic activity of Polymyxin "B" with various peptides of the invention.
The tests were performed on BHI plates with liquid cultures of the test organism to give a lawn. Each peptide was diluted in water and placed on sterile Wathmam 3M disks on the surface of the plate. The plates were dried and incubated at 37° C. The zone of inhibition was measured after 18 hours: […]

Substance: Polymyxin "B"
- Ratio peptide/LipA [1]: 1.02 mol/mol
- Amount of peptide in the complex ([1]; average of two experiments): 2.69 nmol
- % survival ([2]; 24 hs): 90%
- Mice surviving ([2]; 24 hs): 18
- % survival ([2]; 48 hs): 70%
- Mice surviving ([2]; 48 hs): 14
- % survival ([2]; 72 hs): 60%
- Mice surviving ([2]; 72 hs): 12
- % survival ([2]; 96 hs): 0%
- Mice surviving ([2]; 96 hs): 0
- % survival ([2]; 120 hs): 0%
- Mice surviving ([2]; 120 hs): 0
- % survival ([2]; 144 hs): 0%
- Mice surviving ([2]; 144 hs): 0
- % survival ([2]; 168 hs): 0%
- Mice surviving ([2]; 168 hs): 0
- safety and efficacy of treatment ([2]; Balb/c mice, 1 mg endotoxin challenge): resulted efficacious only within three days following the endotoxin challenge
- highest dose tolerated in the mouse [3]: 0.1 mg/mouse
- 3H-thymidine incorporation ([4]; 12.5 μg/ml): 2,366 cpm
- 3H-thymidine incorporation ([4]; 25 μg/ml): 3,559 cpm
- 3H-thymidine incorporation ([4]; 50 μg/ml): 2,831 cpm
- 3H-thymidine incorporation ([4]; 100 μg/ml): 4,128 cpm
- stability in the presence of proteolytic enzymes such as trypsin (trypsin in human serum): stable in the presence of trypsin
- Half-Life Time (t/2) (trypsin in human serum; human serum, 37° C.): > 3 h
- % survival ([5]; 24 hs): 50%
- Mice surviving ([5]; 24 hs): 10
- % survival ([5]; 48 hs): 40%
- Mice surviving ([5]; 48 hs): 8
- % survival ([5]; 72 hs): 30%
- Mice surviving ([5]; 72 hs): 6
- % survival ([5]; 96 hs): 30%
- Mice surviving ([5]; 96 hs): 6
- % survival ([5]; 120 hs): 30%
- Mice surviving ([5]; 120 hs): 6
- % survival ([5]; 144 hs): 30%
- Mice surviving ([5]; 144 hs): 6
- % survival ([5]; 168 hs): 30%
- Mice surviving ([5]; 168 hs): 6
- AFFINITY (Ka) ([6]; for Lipid A of LPSbp): 1.15e+07 L/mol
- SELECTIVITY (KaANA /KaPCP) ([6]; ratio of Ka of peptide to Ka of Polymyxin "B" for Lipid A): 1.0
- Zone (mm) of inhibition V. choleras (Vibrio cholerae; 0.008 μg/ml): 1 mm
- Zone (mm) of inhibition V. choleras (Vibrio cholerae; 0.04 μg/ml): 2 mm
- Zone (mm) of inhibition V. choleras (Vibrio cholerae; 0.2 μg/ml): 2.5 mm
- Zone (mm) of inhibition V. choleras (Vibrio cholerae; 1.0 μg/ml): 5 mm
